From US9145376B2, “Quinazolinone inhibitors of dynein” (The Rockefeller University, priority 2011, dated 2015)

Legend:
[1] = biological target: T1, K560, N-terminal fragment of human conventional kinesin (kinesin-1) (Homo sapiens, UniProt P33176); assay: Microtubule surface gliding assay, K560/kinesin-1; type: biochemical; conditions: 100 μM
T1 construct: K560, a 560-amino acid N-terminal fragment of human conventional kinesin (kinesin-1); His-tag (C); made in house; host or cells: bacteria
T1 sequence (P33176 1-560): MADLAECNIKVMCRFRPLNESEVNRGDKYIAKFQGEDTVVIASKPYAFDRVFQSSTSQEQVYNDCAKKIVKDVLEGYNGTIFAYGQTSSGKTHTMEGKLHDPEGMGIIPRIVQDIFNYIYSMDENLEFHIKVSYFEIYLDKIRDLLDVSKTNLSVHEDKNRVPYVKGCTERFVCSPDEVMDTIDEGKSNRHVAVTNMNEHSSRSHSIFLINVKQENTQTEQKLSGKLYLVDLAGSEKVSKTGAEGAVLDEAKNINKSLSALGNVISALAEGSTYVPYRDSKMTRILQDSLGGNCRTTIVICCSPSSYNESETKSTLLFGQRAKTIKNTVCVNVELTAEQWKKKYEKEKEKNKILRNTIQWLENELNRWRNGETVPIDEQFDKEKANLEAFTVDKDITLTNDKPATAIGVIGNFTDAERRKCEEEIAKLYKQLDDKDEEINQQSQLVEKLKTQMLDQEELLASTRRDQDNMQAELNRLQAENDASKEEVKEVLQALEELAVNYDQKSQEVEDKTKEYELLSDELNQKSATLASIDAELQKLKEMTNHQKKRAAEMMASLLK
Experimental: Cytoplasmic dynein was purified from bovine brains as described by Bingham et al. [Methods Enzymol. 298, 171 (1998)]. K560, a 560-amino acid N-terminal fragment of human conventional kinesin (kinesin-1) with a C-terminal His-tag, was expressed in bacteria and purified as described by Woehlke et al., [Cell 90, 207 (1997)]. Motility assays were performed on a Zeiss Axiovert 200M wide-field microscope equipped with a Zeiss 100×/1.45 NA α-Plan-Fluar objective. Data were captured with an EM-CCD camera (iXon DU-897, Andor Technology) with a 0.3-second exposure time and frame rate of 0.5 second^−1. Microtubule gliding assays were performed as described by Kapoor and Mitchison [Proc. Natl. Acad. Sci. U.S.A. 96, 9106 (1999)] with some modifications. An approximately 6 μL flow chamber was filled with motor protein (100 μg/mL dynein or 50 μg/mL K560) in motor dilution buffer (80 mM Pipes, 1 mM EGTA, 2 mM MgCl2, 2 mM DTT, 50 μM ATP, pH 6.8 with KOH). […] After allowing the microtubules to bind to the surface for 5 minutes, the gliding microtubules were visualized by time-lapse fluorescence microscopy. Velocities were measured by kymography using Metamorph software (Molecular Devices), and the velocity for each microtubule was determined from the total distance during the time observed.

[2] = test system: ciliary IFT88 in Shh-EGFP cells (cytoplasmic dynein 2-dependent retrograde transport); assay: Quantitative assessment of IFT88 trafficking; type: cell-based; conditions: 50 μM, one hour, compared to DMSO or compound 16
Text: As a microtubule-based compartment, the cilium utilizes specific motor proteins to move macromolecules along its axoneme. Intraflagellar transport (IFT) of cargo can be resolved into anterograde trafficking, which requires the plus end-directed kinesin-2 motor and the IFTB multisubunit complex, and retrograde trafficking, which utilizes the minus end-directed cytoplasmic dynein 2 motor and the IFTA complex. The genetic disruption of individual kinesin-2, cytoplasmic dynein 2, or IFT complex subunits has been previously found to induce ciliary defects and perturb Hh signaling. […] To confirm that ciliobrevins target cilia trafficking in general rather than a Hh pathway-specific process, we examined the effect of ciliobrevins on the subcellular localization of IFTB component IFT88, which requires cytoplasmic dynein 2-dependent retrograde transport for its return to the ciliary basal body.
Shh-EGFP cells were seeded into 24-well plates containing poly-D-lysine-coated 12-mm glass coverslips at a density of 30,000 cells/well and cultured for 24 hours in DMEM containing 10% calf serum, 100 U/mL penicillin, and 0.1 mg/mL streptomycin. […] Ciliary IFT levels were quantified essentially as described for Gli2 though no background was subtracted. At least 25 cilia were analyzed to determine the average ciliary IFT88 level for each experimental condition.

N#C/C(C(=O)c1ccc(Cl)cc1Cl)=C1\NC(=O)c2ccccc2N1 [Example 1, 3-(2,4-dichlorophenyl)-3-oxo-2-(4-oxo-3,4-dihydroquinazolin-2(1H)-ylidene)propanenitrile]
K560/kinesin-1-dependent microtubule gliding [1]: Neither ciliobrevin significantly affected

N#C/C(C(=O)c1ccc(Cl)cc1Cl)=C1\NC(=O)c2ccc(Cl)cc2N1 [Example 31, 2-(7-chloro-4-oxo-3,4-dihydroquinazolin-2(1H)-ylidene)-3-(2,4-dichlorophenyl)-3-oxo-propanenitrile]
IFT88 levels at the distal tip of primary cilia [2]: significant increase | K560/kinesin-1-dependent microtubule gliding [1]: Neither ciliobrevin significantly affected
